The text below walks through data of article PMC3726044 (Biochemistry, 2013).

In test [1] the target is ChsE1-ChsE2 (Mycobacterium tuberculosis, UniProt P71857+P71858).
In test [2] the target is T1, ChsE2 (Rv3543c), tagless, expressed from the cistronic construct pigr5 (Mycobacterium tuberculosis H37Rv, UniProt P71858 1-387).
T1 sequence: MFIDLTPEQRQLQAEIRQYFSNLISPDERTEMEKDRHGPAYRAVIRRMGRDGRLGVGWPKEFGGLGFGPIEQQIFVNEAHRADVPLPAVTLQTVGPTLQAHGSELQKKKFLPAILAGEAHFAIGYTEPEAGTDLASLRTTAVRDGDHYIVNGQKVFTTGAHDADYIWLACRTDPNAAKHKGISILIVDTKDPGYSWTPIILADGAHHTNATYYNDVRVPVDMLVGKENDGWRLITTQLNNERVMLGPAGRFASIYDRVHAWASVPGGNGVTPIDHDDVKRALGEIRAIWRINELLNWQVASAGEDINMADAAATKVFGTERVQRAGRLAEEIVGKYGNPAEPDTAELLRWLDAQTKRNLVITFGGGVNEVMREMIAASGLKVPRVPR
As to the kind of experiment: pull-down.

In the case of `Cc1cc2nc3c(=O)[nH]c(=O)nc-3n(C[C@H](O)[C@H](O)[C@H](O)COP(=O)(O)OP(=O)(O)OC[C@H]3O[C@@H](n4cnc5c(N)ncnc54)[C@H](O)[C@@H]3O)c2cc1C` [FAD], the “LC/UV/MS of released flavin (m/z 786), UV-visible spectrum” value in test [1] is given as “ChsE1-ChsE2 is isolated as a holoprotein with FAD cofactor”.

B1: ChsE1 (Rv3544c), N-terminal His6 tagged, expressed from the cistronic construct pigr5 (enzyme)
chain: MDFDPTAEQQAVADVVTSVLERDISWEALVCGGVTALPVPERLGGDGVGLFEVGALLTEVGRHGAVTPALATLGLGVVPLLELASAEQQDRFLAGVAKGGVLTAALNEPGAALPDRPATSFVGGRLSGTKVGVGYAEQADWMLVTADNAVVVVSPTADGVRMVRTPTSNGSDEYVMTMDGVAVADCDILADVAAHRVNQLALAVMGAYADGLVAGALRLTADYVANRKQFGKPLSTFQTVAAQLAEVYIASRTIDLVAKSVIWRLAEDLDAGDDLGVLGYWVTSQAPPAMQICHHLHGGMGMDVTYPMHRYYSTIKDLTRLLGGPSHRLELLGARCSLT
As for B1, in test [2], the binding result is given as “binds”.
